Like-named read-outs stand apart in the source and are kept apart here.
Key:
[1] = test system: HCMV Strain AD169 in MRC-5 cells; experiment: Viral qPCR assay HCMV (V0/V1, V2/V3), EC50; type: cell-based
Protocol: (§1) Viral qPCR Assays (V0/V1)
(§2) MRC5 cells, Vero cells, and MeWo cells were obtained from ATCC and were maintained at 37° C./5% CO2/90% relative humidity in Minimal Essential Medium with 10% fetal bovine serum, […] L-glutamine, 100 units/ml penicillin and 100 ug/ml streptomycin. Assay plates were prepared by dispensing compounds dissolved in DMSO into wells of 384 well collagen-coated plates using an ECHO acoustic dispenser. Each compound was tested in a 10-point, serial 3-fold dilution. Controls included uninfected cells and infected cells treated only with DMSO. Assays were initiated by mixing selected cells, in suspension, with virus, and dispensing 50 μl/well infected cells to pre-plated compounds. Plates were incubated at 37° C./5% CO2/90% relative humidity for ˜72 hrs to permit genomic replication, and infected cells were lysed by the addition of an equal volume of lysis buffer (10 mM Tris-HCl, pH8, 50 mM KCl, 2 mM MgCl2, 0.45% NP-40, 0.45% Tween-20, and 100 μg/ml proteinase K). An aliquot of the lysate was transferred to a 384-well PCR plate and incubated at 56° C. for 1 hour and then at 95° C. for 10 min. Levels of a viral gene and of the cellular control, PPIA (Thermo Fisher Assay ID=Hs04194521_s1), were measured in separate 10 μL qPCR assays using TaqMan® Gene Expression Master Mix (Applied Biosystems), and an 7900HT Fast Real-Time PCR System with 384-Well Block Module. 7-point, serial 10-fold dilutions of a plasmid standard were run on each plate to generate a standard curve, and genome copies numbers were calculated by plotting experimental Ct onto linear regression of the standard curve. Viral genome copy numbers were normalized by cellular control copy number, and compound effects were normalized to the window defined by the controls. Calculated % effects were fit using a 4-parameter algorithm, and EC50 was reported.
(§3) Viral qPCR Assays (V2/V3)
as §2, with “gene” for “gene and of the cellular control, PPIA (Thermo Fisher Assay ID=Hs04194521_s1),”, “in” for “in separate”, “Compound effects on viral” for “Viral”, “number” for “numbers were normalized by cellular control copy number, and compound effects”, “reported. • HCMV: Strain AD169 Street was assayed in MRC-5 cells and was used at 0.05-0.1 pfu/cell. The assays were performed in either growth media or in the same media with 50% fetal bovine serum. Primer-probe set was Thermo Fisher Assay ID=AIFATFK. • VZV: Strain Street was maintained as an infected cell stock in MRC-5 cells. It was assayed in MeWo or MRC5 cells and was used at 0.04-0.1 pfu/cell. […]” for “reported.”

[2] = test system: VZV in MeWo or MRC5 cells; experiment: Viral qPCR assay VZV (V0/V1, V2/V3), EC50; type: cell-based; conditions: Human alphaherpesvirus 3, MRC5, MRC5 cells, 10%; read-out: VZV Cell (EC50) MRC5 10%
Protocol: as §1, §2, §3
as §2, with “gene” for “gene and of the cellular control, PPIA (Thermo Fisher Assay ID=Hs04194521_s1),”, “in” for “in separate”, “Compound effects on viral” for “Viral”, “number” for “numbers were normalized by cellular control copy number, and compound effects”, “reported. • HCMV: Strain AD169 Street was assayed in MRC-5 cells and was used at 0.05-0.1 pfu/cell. The assays were performed in either growth media or in the same media with 50% fetal bovine serum. Primer-probe set was Thermo Fisher Assay ID=AIFATFK. • VZV: Strain Street was maintained as an infected cell stock in MRC-5 cells. It was assayed in MeWo or MRC5 cells and was used at 0.04-0.1 pfu/cell. […]” for “reported.”

[3] = target: T1, Human cytomegalovirus DNA polymerase (Human cytomegalovirus, UniProt P08546); experiment: HCMV polymerase assay (AlphaLISA, IC50); type: biochemical; conditions: polymerase assay of Example 190
T1 construct: made in house; host or cells: SF21 insect cells (baculovirus vector)
Protocol: Human cytomegalovirus and varicella zoster virus DNA polymerases were expressed via baculovirus vector in SF21 cells and purified. Heterodimeric nucleic acid substrate used in the herpesvirus polymerase reactions was generated by annealing a 59-mer template to a 17-mer digoxigenin-labeled primer. Polymerase (HCMV final concentration of 0.2 nM; VZV final concentration of 0.4 nM) was combined with an inhibitor compound or DMSO in assay buffer (10 mM HEPES, pH 7.5, 25 mM KCl, 25 mM NaCl, 5 mM MgCl2, 5% glycerol, 0.67 mg/ml bovine serum albuminutes, and 1 mM tris(2-carboxyethyl)phosphine), and this mixture was pre-incubated for 30 minutes at room temperature in 384-well microtiter plates. The polymerization reaction was initiated by the addition of template/primer substrate (final concentration: 1.6 nM), and dNTPs (final concentration: 24 nM dCTP, 24 nMdGTP, 16 nM dATP, 16 nM dTTP, and 0.8 nM biotin-dUTP). After 60 minutes incubation at 37° C., reactions were terminated with quench buffer (25 mM HEPES pH 7.5, 100 mM NaCl, 0.25% Tween-20, 12 mM EDTA, and 1 mg/ml bovine serum albumin). Incorporation of biotinylated UTP was detected with 2.5-5 ug/ml anti-DIG AlphaLISA acceptor beads and 5-10 ug/ml streptavidin AlphaLISA donor beads (Perkin Elmer). Compound effects were normalized to the window defined by the controls (DMSO only and pre-quenched wells), and were fit using a 4-parameter algorithm to report an IC50.

[4] = test system: HSV-1 Strain F in Vero or MRC5 cells; experiment: Viral qPCR assay HSV-1 (V0/V1, V2/V3), EC50; type: cell-based; conditions: Human alphaherpesvirus 1, MRC5, MRC5 cells, 10%; read-out: HSV1 Cell (EC50) MRC5 10%
Protocol: as §1, §2, §3
as §2, with “gene” for “gene and of the cellular control, PPIA (Thermo Fisher Assay ID=Hs04194521_s1),”, “in” for “in separate”, “Compound effects on viral” for “Viral”, “number” for “numbers were normalized by cellular control copy number, and compound effects”, “reported. • HCMV: Strain AD169 Street was assayed in MRC-5 cells and was used at 0.05-0.1 pfu/cell. The assays were performed in either growth media or in the same media with 50% fetal bovine serum. Primer-probe set was Thermo Fisher Assay ID=AIFATFK. • VZV: Strain Street was maintained as an infected cell stock in MRC-5 cells. It was assayed in MeWo or MRC5 cells and was used at 0.04-0.1 pfu/cell. […]” for “reported.”

[5] = Human betaherpesvirus 5, AD169, MRC5, viral qPCR assay of Example 191, read-out: HCMV Cell (EC50)

T1 sequence (P08546 whole entry): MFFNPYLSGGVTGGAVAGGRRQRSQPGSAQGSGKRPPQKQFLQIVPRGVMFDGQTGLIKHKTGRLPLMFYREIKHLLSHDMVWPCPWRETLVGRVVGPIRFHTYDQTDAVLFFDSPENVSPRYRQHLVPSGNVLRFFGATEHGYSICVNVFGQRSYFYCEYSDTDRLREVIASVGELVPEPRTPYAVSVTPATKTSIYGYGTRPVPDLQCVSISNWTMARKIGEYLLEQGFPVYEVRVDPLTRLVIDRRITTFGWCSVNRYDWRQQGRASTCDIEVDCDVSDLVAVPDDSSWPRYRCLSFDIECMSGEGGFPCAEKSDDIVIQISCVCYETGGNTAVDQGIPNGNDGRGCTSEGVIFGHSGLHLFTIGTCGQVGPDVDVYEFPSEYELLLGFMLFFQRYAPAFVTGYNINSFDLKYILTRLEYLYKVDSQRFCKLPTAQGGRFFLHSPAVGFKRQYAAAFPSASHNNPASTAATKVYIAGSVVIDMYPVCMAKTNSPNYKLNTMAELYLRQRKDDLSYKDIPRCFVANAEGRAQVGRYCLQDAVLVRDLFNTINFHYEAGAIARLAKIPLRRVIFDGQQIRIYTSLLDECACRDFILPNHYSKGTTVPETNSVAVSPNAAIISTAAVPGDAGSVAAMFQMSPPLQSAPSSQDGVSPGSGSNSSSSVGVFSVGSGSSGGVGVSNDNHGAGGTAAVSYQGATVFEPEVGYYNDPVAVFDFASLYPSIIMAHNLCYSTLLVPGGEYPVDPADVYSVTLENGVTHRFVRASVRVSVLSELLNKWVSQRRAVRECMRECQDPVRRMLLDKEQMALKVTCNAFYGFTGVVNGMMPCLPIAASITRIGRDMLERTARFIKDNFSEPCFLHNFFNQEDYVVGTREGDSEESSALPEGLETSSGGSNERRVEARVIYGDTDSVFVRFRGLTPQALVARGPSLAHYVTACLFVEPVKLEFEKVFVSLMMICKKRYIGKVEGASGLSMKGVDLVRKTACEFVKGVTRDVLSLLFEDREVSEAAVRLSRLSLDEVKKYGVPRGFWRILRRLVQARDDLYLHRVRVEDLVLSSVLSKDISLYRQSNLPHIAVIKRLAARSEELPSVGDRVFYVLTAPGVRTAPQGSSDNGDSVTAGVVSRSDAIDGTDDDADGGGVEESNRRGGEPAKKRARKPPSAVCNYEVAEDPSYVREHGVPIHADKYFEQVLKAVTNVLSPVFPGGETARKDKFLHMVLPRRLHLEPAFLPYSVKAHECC

IC50 [3] [nM]	Structure (SMILES)	EC50 [1, 5] [nM]	EC50 [2] [nM]	EC50 [4] [nM]	EC50 ([1]; Human betaherpesvirus 5, AD169, MRC5, read-out: HCMV Cell (EC50)) [nM]
122	CC(=O)N1CCC(Oc2cc(C(=O)NCc3ccc(Cl)cc3)ncc2-c2cnn(C)n2)CC1 [Compound 7]	552	707	530	
1.16	Cc1cc(-c2cnc(C(=O)NCc3ccc(Cl)cc3)cc2O[C@H]2CCN3C(=O)OC[C@@H]3C2)sn1 [Compound 23]	102	59.6	25.7	
136	CC(=O)N1CCC(Oc2cc(C(=O)NCc3ccc(Cl)cc3)ncc2-c2cnsc2)CC1 [Compound 47]	1160			
37.3	CC(=O)N1CCC(Oc2cc(C(=O)NCc3ccc(Cl)cc3)ncc2-c2cn(C)cn2)CC1 [Compound 50]	461	243	181	
48.5	CC(=O)N1CCC(Oc2cc(C(=O)NCc3ccc(Cl)cc3)ncc2-c2cncs2)CC1 [Compound 51]	369	170	164	
56.5	CC(=O)N1CCC(Oc2cc(C(=O)NCc3ccc(Cl)cc3)ncc2-c2cnoc2)CC1 [Compound 53]	1840			
65.4	CC(=O)N1CCC(Oc2cc(C(=O)NCc3ccc(Cl)cc3)ncc2-c2cn(C)c(CCO)n2)CC1 [Compound 55]	781			
155	CC(=O)N1CCC(Oc2cc(C(=O)NCc3ccc(Cl)cc3)ncc2-c2cnsn2)CC1 [Compound 58]	1810			
151	CC(=O)N1CCC(Oc2cc(C(=O)NCc3ccc(Cl)cc3)ncc2-c2cn(C)nn2)CC1 [Compound 59]	976			
197	CC(=O)N1CCC(Oc2cc(C(=O)NCc3ccc(Cl)cc3)ncc2-c2ccsn2)CC1 [Compound 60]	1490			
187	O=C(NCc1ccc(I)cc1)c1cc(O[C@H]2CCN3C(=O)OC[C@@H]3C2)c(-c2cnn(C(F)F)c2)cn1 [Compound 89]	1520			
407	Cc1cnc(C(=O)NCc2ccc(Cl)cc2)cc1OC1CCC(=O)N(C)CC1 (stereo not shown) [Compound 99]	4010			
273	O=C(NCc1ccc(C(F)(F)F)cc1)c1cc(O[C@H]2CCN3C(=O)OC[C@@H]3C2)c(-c2cnn(C(F)F)c2)cn1 [Compound 104]	5980			
38.8	O=C(NCc1ccc(Cl)cc1)c1cc(O[C@H]2CCN3C(=O)OC[C@@H]3C2)c(N2CC3(CC(O)C3)C2)cn1 [Compound 118]	579			
65.2	CC(C)(N)C1CCN(c2cnc(C(=O)NCc3ccc(Cl)cc3)cc2O[C@H]2CCN3C(=O)OC[C@@H]3C2)C1 (stereo partly shown) [Compound 119]	747			
36.5	CC(C)(O)C1CN(c2cnc(C(=O)NCc3ccc(Cl)cc3)cc2O[C@H]2CCN3C(=O)OC[C@@H]3C2)C1 [Compound 121]	257			
160	CC(C)(O)C12CC(C1)N(c1cnc(C(=O)NCc3ccc(Cl)cc3)cc1O[C@H]1CCN3C(=O)OC[C@@H]3C1)C2 [Compound 123]	1310			
804	CS(=O)(=O)c1cnc(C(=O)NCc2ccc(Cl)cc2)cc1O[C@H]1CCN2C(=O)OC[C@@H]2C1 [Compound 147]	12700			
135	CC(=O)N1CCC(Oc2cc(C(=O)NCc3ccc(Cl)cc3)ncc2-c2cnn(C(F)F)c2)CC12CC2 (stereo not shown) [Compound 160]	1400			
107	COCCOC(=O)N(Cc1ccc(Cl)cc1)C(=O)c1cc(O[C@H]2CCN3C(=O)OC[C@@H]3C2)c(-c2cnn(C(F)F)c2)cn1 [Compound 179]	1390			
201	CN1CCC(C(=O)OCN(Cc2ccc(Cl)cc2)C(=O)c2cc(O[C@H]3CCN4C(=O)OC[C@@H]4C3)c(-c3cnn(C(F)F)c3)cn2)CC1 [Compound 183]	150			

Structure (SMILES)	IC50 [3] [nM]	EC50 [1, 5] [nM]	EC50 [2] [nM]	EC50 [4] [nM]	EC50 ([1]; Human betaherpesvirus 5, AD169, MRC5, read-out: HCMV Cell (EC50)) [nM]
C[C@@H]1CN(C)CCN1c1cc(C(=O)NCc2ccc(Cl)cc2)nc(-c2cnn(CCO)c2)c1 [Compound 177]	601				1410

Reference: US20240067657A1, “AMIDO-SUBSTITUTED PYRIDYL COMPOUNDS AND METHODS OF USE THEREOF FOR THE TREATMENT OF HERPESVIRUSES” (Merck Sharp & Dohme LLC, priority 2020, published 2024)
